Data as given in patent US9815839B2, “N-(1-(substituted-phenyl)ethyl)-9H-purin-6-amines as PI3K inhibitors” (Incyte Corporation, priority 2010, dated 2017).
Structures can show the parent of a compound that is named as a salt.

What follows are molecules tested against T1, PI3Kδ (p110δ/p85α) (Homo sapiens, UniProt O00329) (assay: PI3Kδ scintillation proximity assay). Conditions: 20 μM ATP, 4 nM PI3Kδ.
T1 construct: purchased Millipore (Bedford, Mass.)
Format: biochemical
Text: Example A: PI3Kδ Scintillation Proximity Assay
Materials: [γ-^33P]ATP (10 mCi/mL) was purchased from Perkin-Elmer (Waltham, Mass.). Lipid kinase substrate, D-myo-Phosphatidylinositol 4,5-bisphosphate (PtdIns(4,5)P2)D (+)-sn-1,2-di-O-octanoylglyceryl, 3-O-phospho linked (PIP2), CAS 204858-53-7, was purchased from Echelon Biosciences (Salt Lake City, Utah). PI3Kδ (p110δ/p85α) was purchased from Millipore (Bedford, Mass.). ATP, MgCl2, DTT, EDTA, MOPS and CHAPS were purchased from Sigma-Aldrich (St. Louis, Mo.). Wheat Germ Agglutinin (WGA) YSi SPA Scintillation Beads was purchased from GE healthcare life sciences (Piscataway, N.J.).
The kinase reaction was conducted in polystyrene 384-well matrix white plate from Thermo Fisher Scientific in a final volume of 25 μL. Inhibitors were first diluted serially in DMSO and added to the plate wells before the addition of other reaction components. The final concentration of DMSO in the assay was 0.5%. The PI3K assays were carried out at room temperature in 20 mM MOPS, pH 6.7, 10 mM MgCl2, 5 mM DTT and CHAPS 0.03%. Reactions were initiated by the addition of ATP, the final reaction mixture consisted of 20 μM PIP2,20 μM ATP, 0.2 μCi [γ-^33P] ATP, 4 nM PI3Kδ. Reactions were incubated for 210 minutes and terminated by the addition of 40 μL SPA beads suspended in quench buffer: 150 mM potassium phosphate pH 8.0, 20% glycerol. 25 mM EDTA, 400 µM ATP. The final concentration of SPA beads is 1.0 mg/mL. After the plate sealing, plates were shaken overnight at room temperature and centrifuged at 1800 rpm for 10 minutes, the radioactivity of the product was determined by scintillation counting on Topcount (Perkin-Elmer). IC50 determination was performed by fitting the curve of percent control activity versus the log of the inhibitor concentration using the GraphPad Prism 3.0 software.

T1 sequence (O00329 whole entry, species assumed): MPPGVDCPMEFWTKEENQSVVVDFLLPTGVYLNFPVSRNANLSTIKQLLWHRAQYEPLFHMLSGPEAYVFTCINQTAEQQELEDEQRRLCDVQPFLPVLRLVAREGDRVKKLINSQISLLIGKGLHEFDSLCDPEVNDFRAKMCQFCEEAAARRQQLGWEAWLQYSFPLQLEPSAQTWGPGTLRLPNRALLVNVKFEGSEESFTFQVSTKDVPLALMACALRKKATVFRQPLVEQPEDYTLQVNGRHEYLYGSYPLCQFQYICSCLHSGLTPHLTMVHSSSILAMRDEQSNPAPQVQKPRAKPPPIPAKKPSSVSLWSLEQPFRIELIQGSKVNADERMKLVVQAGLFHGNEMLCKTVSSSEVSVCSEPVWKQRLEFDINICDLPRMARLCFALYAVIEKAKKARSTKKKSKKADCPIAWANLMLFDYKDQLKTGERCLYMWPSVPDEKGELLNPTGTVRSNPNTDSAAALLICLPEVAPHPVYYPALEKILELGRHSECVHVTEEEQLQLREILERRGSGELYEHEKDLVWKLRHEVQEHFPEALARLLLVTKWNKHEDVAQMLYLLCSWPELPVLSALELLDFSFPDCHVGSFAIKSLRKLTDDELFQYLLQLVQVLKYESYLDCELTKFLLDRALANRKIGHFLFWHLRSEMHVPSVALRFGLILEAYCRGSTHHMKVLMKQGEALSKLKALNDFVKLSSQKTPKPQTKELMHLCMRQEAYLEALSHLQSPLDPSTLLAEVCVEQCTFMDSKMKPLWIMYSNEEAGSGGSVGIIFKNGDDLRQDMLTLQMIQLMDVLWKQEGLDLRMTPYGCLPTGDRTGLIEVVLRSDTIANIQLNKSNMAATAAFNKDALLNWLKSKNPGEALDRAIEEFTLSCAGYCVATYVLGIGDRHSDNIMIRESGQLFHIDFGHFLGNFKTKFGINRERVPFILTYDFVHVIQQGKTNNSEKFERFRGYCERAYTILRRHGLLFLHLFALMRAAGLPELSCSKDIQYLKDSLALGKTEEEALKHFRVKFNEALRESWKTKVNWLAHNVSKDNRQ
T1 sequence (P27986 whole entry partner, species assumed): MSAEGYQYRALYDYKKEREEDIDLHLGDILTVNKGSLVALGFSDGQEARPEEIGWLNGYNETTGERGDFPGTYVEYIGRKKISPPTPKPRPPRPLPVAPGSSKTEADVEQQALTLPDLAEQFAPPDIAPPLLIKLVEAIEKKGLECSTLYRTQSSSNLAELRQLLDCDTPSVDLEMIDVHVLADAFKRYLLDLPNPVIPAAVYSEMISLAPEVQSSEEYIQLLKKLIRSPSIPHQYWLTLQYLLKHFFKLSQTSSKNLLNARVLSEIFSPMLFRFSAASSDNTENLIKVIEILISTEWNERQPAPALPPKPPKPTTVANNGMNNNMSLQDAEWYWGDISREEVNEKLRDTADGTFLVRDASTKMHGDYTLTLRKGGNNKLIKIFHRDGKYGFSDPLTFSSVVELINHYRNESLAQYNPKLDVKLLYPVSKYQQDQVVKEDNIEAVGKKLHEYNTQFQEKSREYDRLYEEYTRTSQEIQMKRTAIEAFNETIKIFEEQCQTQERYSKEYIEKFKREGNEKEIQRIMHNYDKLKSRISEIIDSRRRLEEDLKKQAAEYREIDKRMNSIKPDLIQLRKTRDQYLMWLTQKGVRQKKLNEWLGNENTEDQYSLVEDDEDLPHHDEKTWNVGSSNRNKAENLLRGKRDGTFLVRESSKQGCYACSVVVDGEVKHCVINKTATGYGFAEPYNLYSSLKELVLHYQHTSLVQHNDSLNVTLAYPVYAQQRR

| SMILES | IC50 [nM] |
| --- | --- |
| COc1c(C(C)Nc2ncnc3[nH]cnc23)cc(Cl)c(C)c1-c1ccc(OC(C)C)nc1 (stereo not drawn) [Example 59, N-{1-[5-chloro-3-(6-isopropoxypyridin-3-yl)-2-methoxy-4-methylphenyl]ethyl}-9H-purin-6-amine] | 100 to 250 |
| COc1c(C(C)Nc2ncnc3[nH]cnc23)cc(Cl)c(C)c1-c1cnn(C2(CC#N)CC(C#N)C2)c1 (single isomer, unassigned) [Example 54, 3-(4-{3-chloro-6-methoxy-2-methyl-5-[1-(9H-purin-6-ylamino)ethyl]phenyl}-1H-pyrazol-1-yl)-3-(cyanomethyl)cyclobutanecarbonitrile] | < 50 |
| COc1c(C(C)Nc2ncnc3[nH]cnc23)cc(Cl)c(C)c1-c1cnn(CC#N)c1 (stereo not drawn) [Example 117, (4-{3-Chloro-6-methoxy-2-methyl-5-[1-(9H-purin-6-ylamino)ethyl]phenyl}-1H-pyrazol-1-yl)acetonitrile trifluoroacetate] | < 50 |
| CC(Nc1ncnc2[nH]cnc12)c1cc(Cl)cc(-c2ccc(S(C)(=O)=O)cc2)c1-c1cc(F)cc(F)c1 (stereo not drawn) [Example 134, N-{1-[5′-chloro-3″,5″-difluoro-4-(methyl-sulfonyl)-1,1′:2′,1″-terphenyl-3′-yl]ethyl}-9H-purin-6-amine] | < 50 |
| COc1c(C(C)Nc2ncnc3[nH]cnc23)cc(Cl)c(C)c1-c1cncc(F)c1 (stereo not drawn) [Example 108, N-{1-[5-Chloro-3-(5-fluoropyridin-3-yl)-2-methoxy-4-methylphenyl]ethyl}-9H-purin-6-amine] | < 50 |
| Cc1c(Cl)cc(C(C)Nc2ncnc3[nH]cnc23)c(C)c1-c1ccncc1 (stereo not drawn) [Example 127, N-[1-(5-Chloro-2,4-dimethyl-3-pyridin-4-ylphenyl)ethyl]-9H-purin-6-amine] | < 50 |
| COc1c(C(C)Nc2ncnc3[nH]cnc23)cc(Cl)c(C)c1-c1ccc(F)c(F)c1 (stereo not drawn) [Example 105, N-[1-(5-chloro-3′,4′-difluoro-2-methoxy-6-methylbiphenyl-3-yl)ethyl]-9H-purin-6-amine] | < 50 |
| CC(Nc1ncnc2[nH]cnc12)c1cc(Cl)cc(-c2ccncc2)c1-c1cc(F)cc(F)c1 (stereo not drawn) [Example 131, N-[1-(4-chloro-3′,5′-difluoro-6-pyridin-4-ylbiphenyl-2-yl)ethyl]-9H-purin-6-amine] | < 50 |
| Cc1c(Cl)cc(C(C)Nc2ncnc3[nH]cnc23)c(OCCN2CCOCC2)c1-c1ccc(S(C)(=O)=O)cc1 (stereo not drawn) [Example 128, N-{1-[5-Chloro-6-methyl-4′-(methylsulfonyl)-2-(2-morpholin-4-ylethoxy)biphenyl-3-yl]ethyl}-9H-purin-6-amine] | < 50 |
| CC(Nc1ncnc2[nH]cnc12)c1cc(Cl)c(CC#N)c(C#N)c1-c1cccc(F)c1 (stereo not drawn) [Example 4, 4-Chloro-3-(cyanomethyl)-3′-fluoro-6-[1-(9H-purin-6-ylamino)ethyl]biphenyl-2-carbonitrile] | 500 to 1000 |
| COc1c(C(C)Nc2ncnc3[nH]cnc23)cc(Cl)c(C)c1-c1ccc(C(=O)N2CCCC2)c(F)c1 (stereo not drawn) [Example 66, N-{1-[5-chloro-3′-fluoro-2-methoxy-6-methyl-4′-(pyrrolidin-1-ylcarbonyl)biphenyl-3-yl]ethyl}-9H-purin-6-amine] | < 50 |
| COc1c(C(C)Nc2ncnc3[nH]cnc23)cc(Cl)c(C)c1-c1cncc(C#N)c1 (stereo not drawn) [Example 114, 5-{3-chloro-6-methoxy-2-methyl-5-[1-(9H-purin-6-ylamino)ethyl]phenyl}nicotinonitrile] | < 50 |
| CNC(=O)c1ccc(-c2cc(Cl)cc(C(C)Nc3ncnc4[nH]cnc34)c2OC)cc1Cl (stereo not drawn) [Example 144, 3,5′-dichloro-2′-methoxy-N-methyl-3′-[1-(9H-purin-6-ylamino)ethyl]biphenyl-4-carboxamide] | < 50 |
| CC(Nc1ncnc2[nH]cnc12)c1cc(Cl)cc(-c2cnc(N)nc2)c1-c1cc(F)cc(F)c1 (stereo not drawn) [Example 135, N-{1-[6-(2-amino-pyrimidin-5-yl)-4-chloro-3′,5′-difluorobiphenyl-2-yl]ethyl}-9H-purin-6-amine] | < 50 |
| COc1c(C(C)Nc2ncnc3[nH]cnc23)cc(Cl)c(C)c1-c1ccc(C(=O)N2CC(C#N)C2)c(F)c1 (stereo not drawn) [Example 63, 1-({3′-Chloro-3-fluoro-6′-methoxy-2′-methyl-5′-[1-(9H-purin-6-ylamino)ethyl]biphenyl-4-yl}carbonyl)azetidine-3-carbonitrile] | < 50 |

Results, then the molecule that gave them:

| IC50 [nM] | SMILES |
| --- | --- |
| < 50 | CNC(=O)c1ccc(-c2c(C)c(Cl)cc(C(C)Nc3ncnc4[nH]cnc34)c2OCCN2CCOCC2)cc1Cl (stereo not drawn) [Example 154] |
| < 50 | COc1cccc(-c2c(C)c(Cl)cc(C(C)Nc3ncnc4[nH]cnc34)c2OCCN2CCOCC2)c1 (stereo not drawn) [Example 150, N-{1-[5-chloro-3′-methoxy-6-methyl-2-(2-mor-pholin-4-ylethoxy)-biphenyl-3-yl]ethyl}-9H-purin-6-amine] |
| < 50 | COc1c(C(C)Nc2ncnc3[nH]cnc23)cc(Cl)c(C)c1-c1ccc(C(C)(C)O)nc1 (stereo not drawn) [Example 184, 2-(5-{3-chloro-6-methoxy-2-methyl-5-[1-(9H-purin-6-ylamino)ethyl]phenyl}pyridin-2-yl)propan-2-ol bis(2,2,2-trifluoroacetate)] |
| < 50 | CCOc1c(C(C)Nc2ncnc3[nH]cnc23)cc(C)c(C#N)c1-c1cncc(S(C)(=O)=O)c1 (stereo not drawn) [Example 186, 3-ethoxy-6-methyl-2-[5-(methylsulfonyl)pyridin-3-yl]-4-[1-(9H-purin-6-ylamino)ethyl]benzonitrile bis(2,2,2-trifluoroacetate)] |
| < 50 | COc1c(C(C)Nc2ncnc3[nH]cnc23)cc(Cl)c(C)c1C1CN(S(C)(=O)=O)C1 (stereo not drawn) [Example 169, N-(1-{5-Chloro-2-methoxy-4-methyl-3-[1-(methylsulfonyl)azetidin-3-yl]phenyl}ethyl)-9H-purin-6-amine trifluoroacetate] |
| < 50 | COc1c(C(C)Nc2ncnc3[nH]cnc23)cc(Cl)c(Cl)c1C1CN(CC(F)(F)F)C1 (stereo not drawn) [Example 207, N-(1-{4,5-Dichloro-2-methoxy-3-[1-(2,2,2-trifluoroethyl)azetidin-3-yl]phenyl}ethyl)-9H-purin-6-amine bis(trifluoroacetate)] |
| < 50 | COc1c(C(C)Nc2ncnc3[nH]cnc23)cc(Cl)c(C)c1C(O)CN1CCOCC1 (stereo not drawn) [Example 190, 1-{3-Chloro-6-methoxy-2-methyl-5-[1-(9H-purin-6-ylamino)ethyl]phenyl}-2-morpholin-4-ylethanol bis(trifluoroacetate)] |
| < 50 | COc1ncc(-c2c(C)c(Cl)cc(C(C)Nc3ncnc4[nH]cnc34)c2OCCN2CCOCC2)cc1F (stereo not drawn) [Example 160, N-{1-[5-chloro-3-(5-fluoro-6-methoxy-pyridin-3-yl)-4-methyl-2-(2-mor-pholin-4-ylethoxy)-phenyl]-ethyl}-9H-purin-6-amine] |
| < 50 | COC(=O)N1CC(c2c(C)c(Cl)cc(C(C)Nc3ncnc4[nH]cnc34)c2OC)C1 (stereo not drawn) [Example 167, Methyl 3-{3-chloro-6-methoxy-2-methyl-5-[1-(9H-purin-6-ylamino)ethyl]phenyl}azetidine-1-carboxylate trifluoroacetate] |
| < 50 | COc1ncc(-c2c(C)c(Cl)cc(C(C)Nc3ncnc4[nH]cnc34)c2OCCN2CCOCC2)cn1 (stereo not drawn) [Example 161, N-{1-[5-chloro-3-(2-methoxy-pyrimidin-5-yl)-4-methyl-2-(2-morpholin-4-yl-ethoxy)-phenyl]-ethyl}-9H-purin-6-amine] |
| < 50 | CCC(Nc1ncnc2[nH]cnc12)c1cc(Cl)c(C)c(-c2cncc(S(C)(=O)=O)c2)c1OC (stereo not drawn) [Example 182, N-(1-{5-chloro-2-methoxy-4-methyl-3-[5-(methylsulfonyl)pyridin-3-yl]phenyl}propyl)-9H-purin-6-amine bis(2,2,2-trifluoroacetate)] |
| < 50 | Cc1c(Cl)cc(C(C)Nc2ncnc3[nH]cnc23)c(OCCN2CCOCC2)c1-c1cc(F)cc(C(N)=O)c1 (stereo not drawn) [Example 159, 3′-chloro-5-fluoro-2′-methyl-6′-(2-morpholin-4-ylethoxy)-5′-[1-(9H-purin-6-yl-amino)ethyl]-biphenyl-3-carboxamide] |
| < 50 | COc1c(C(C)Nc2ncnc3[nH]cnc23)cc(Cl)c(C)c1C1CNC(=O)C1 (single isomer, unassigned) [Example 192, 4-{3-chloro-6-methoxy-2-methyl-5-[1-(9H-purin-6-ylamino)ethyl]phenyl}pyrrolidin-2-one] |
| < 50 | COc1c(C(C)Nc2ncnc3[nH]cnc23)cc(Cl)c(C)c1-c1cscn1 (stereo not drawn) [Example 164, N-{1-[5-Chloro-2-methoxy-4-methyl-3-(1,3-thiazol-4-yl)phenyl]ethyl}-9H-purin-6-amine trifluoroacetate] |
| < 50 | COc1c(-c2ccc(F)nc2)cc(Cl)cc1C(C)Nc1ncnc2[nH]cnc12 (stereo not drawn) [Example 147, N-{1-[5-chloro-3-(6-fluoropyridin-3-yl)-2-methoxyphenyl]-ethyl}-9H-purin-6-amine] |
